In US6103888A, “Mammalian cationic proteins having lipopolysaccharide binding and anti-coagulant activity” (priority 1999, dated 2000):

Experiments:
E. coli 055:B5 LPS = assay: Inhibition of RNIP-mediated hemagglutination by LPS preparation; type: binding; settings: Peptide #36-1 16 μg/ml, RNIP (#197) 25 μg/ml preincubated with LPS 37° 30 minutes
Method: (§1) For hemagglutination assays, erythrocytes were sensitized with LPS as follows. One ml of 1% erythrocyte suspension (human 0 type, C3H/HeN mouse or sheep) was mixed with 0.2 ml of LPS solution and incubated at 37° C. for 30 min, followed by washing with phosphate buffered saline (PBS), and then the concentration of suspension was adjusted to 1.0%. In the case of S-LPS, the solution was heated at 100° C. for 1 hour before sensitization of erythrocytes. […] Activity of CAP was expressed as a minimum agglutinating concentration (MAC) of CAP. According to the method of Kirikae et al. (1986) Microbiol. Immunol. 30:269-274, 50 μl of 2-fold serial dilution of Re-LPS was added to 50 μl of 1.0% rabbit erythrocyte suspension, and incubated at 37° C. for 3 hour. Minimum agglutinating concentration of Re-LPS was expressed as 1 HA unit.
(§2) Another series of experiments was performed to determine if the #36-1 and #197 (RNIP) peptides were capable of binding to LPS from various species of Gram-negative bacteria. For these experiments, sheep red blood cells were sensitized with Salmonella minnesota Re-LPS. Peptides #36-1 and #197 (RNIP) were preincubated with various preparations of LPS. Both peptides bind to a diverse group of lipopolysaccharides.
(§3) +Peptide #361 (16 μg/ml) and RNIP (#197) (25 μg/ml) were
(§4) preincubated with each LPS preparation at 37° for 30 minutes, and
(§5) each reaction mixture was added to sheep erythrocytes sensitized with […]

E. coli 0111:B4 LPS = assay: as above; type: binding; settings: Peptide #36-1 16 μg/ml, RNIP (#197) 25 μg/ml preincubated with LPS 37° 30 minutes
Method: as §1, §2, §3, §4, §5

E. coli 0127:B8 LPS = assay: as above; type: binding; settings: Peptide #36-1 16 μg/ml, RNIP (#197) 25 μg/ml preincubated with LPS 37° 30 minutes
Method: as §1, §2, §3, §4, §5

[1] = test system: Salmonella minnesota R595 LPS; assay: as above; type: binding; settings: Peptide #36-1 16 μg/ml, RNIP (#197) 25 μg/ml preincubated with LPS 37° 30 minutes
Method: as §1, §2, §3, §4, §5

[2] = test system: Klebsiella pneumoniae LPS; assay: as above; type: binding; settings: Peptide #36-1 16 μg/ml, RNIP (#197) 25 μg/ml preincubated with LPS 37° 30 minutes
Method: as §1, §2, §3, §4, §5

[3] = test system: Pseudomonas aeruginosa F-D Type I LPS; assay: as above; type: binding; settings: Peptide #36-1 16 μg/ml, RNIP (#197) 25 μg/ml preincubated with LPS 37° 30 minutes
Method: as §1, §2, §3, §4, §5

E. coli J5 LPS = assay: as above; type: binding; settings: Peptide #36-1 16 μg/ml, RNIP (#197) 25 μg/ml preincubated with LPS 37° 30 minutes
Method: as §1, §2, §3, §4, §5

Pseudomonas aeruginosa = assay: Bacterial proliferation, 3H-thymidine incorporation assay; type: cell-based
Method: (§6) Bacteria were grown in trypticase broth overnight.
(§7) To corroborate the anti-bacterial activity shown in the CFU assays, inhibition of proliferation of bacteria was tested directly using a ^3 H-thymidine incorporation assay. […] In summary although there is some strain to strain variation in the IC50, all of the Gram-negativestrains tested in two different types of assays were sensitive to these anti-microbial peptides.

Streptococcus pyogenes = assay: as above; type: cell-based
Method: as §6, §7

Streptococcus pneumoniae = assay: as above; type: cell-based
Method: as §6, §7

Klebsiella pneumoniae = assay: as above; type: cell-based
Method: as §6, §7

Pseudomonas apacia = assay: as above; type: cell-based
Method: as §6, §7

[4] = test system: Staphylococcus aureus, coagulase positive; assay: as above; type: cell-based
Method: as §6, §7

E. coli (HB101) = assay: as above; type: cell-based; settings: for Percent inhibition of proliferation: E. coli (HB101)
Method: as §6, §7

E. coli O9:K39 K+ strain = assay: Antibacterial CFU assay
[5] = test system: thioglycolate elicited murine peritoneal exudate cells; assay: RNI generation by thioglycolate elicited peritoneal exudate cells; type: cell-based; settings: for RNI: RNIP 50 nm
Method: From the sequence of the CAP18 cDNA, it was apparent that the putative N-terminal peptide of CAP18 was in fact an internal fragment of the CAP18 protein. We therefore tried to reconfirm the original protein sequence. Neutrophil-derived heparin bound cationic proteins were prepared as described above and applied to a C18 reverse phase HPLC (FIG. 1). We sequenced the major peaks. Peaks at fractions 14.5 and 15.2 correspond to defensins MCP1 and MCP2 (Territo et al. (1989) J. Clin. Invest. 84:2017-2019), respectively. Fraction 25.8 is macrophage related protein 14 (MRP14) (Odink et al. (1987) Nature 330:80-82). The fraction at 20.3 minutes corresponds to a fragment of CAP18 of approximately 4-5 kD. […] The murine macrophage cell line RAW 264.7 (obtained from ATCC) and thioglycollate-elicited murine peritoneal exudate cells are used to produce RNI. Cells are cultured at 1×10^6 /ml. in RPMI-1640 +2.5% FCS in 24 well plates in the presence or absence of different concentrations of LPS or murine rlFNγ. After 24 hr. incubation at 37° C., the cell free supernatant is collected and tested for the presence of RNI. Accumulation of nitrite in the medium is measured by a calorimetric assay based on the Griess reaction (Green et al. (1982) Anal. Biochem. 126:11) using sodium nitrite as standards. Sample (50 μl) is mixed with 50 μl of Griess reagent (1% sulfanilamide, 0.1% naphthalene diamine dihydrochloride, 2.5% H3 PO4) and after 10 min. at room temperature absorbance is read at 570 nm.

E. coli O9:K39 K- strain = assay: Antibacterial CFU assay
[6] = read-out: IC50, anti-bacterial activity

RNIP: rabbit reactive nitrogen inhibitory protein, amino acids 135-171 of SEQ ID NO:4; purified from granulocytes (Tables 1-3) or synthetic (#197) (GLRKRLRKFRNKIKEKLKKIGQKIQGLLPKLAPRTDY)
MIC, minimal inhibitory concentration of LPS (E. coli 055:B5 LPS): 62.5 µg/mL | MIC, minimal inhibitory concentration of LPS (E. coli 0111:B4 LPS): 31.3 µg/mL | MIC, minimal inhibitory concentration of LPS (E. coli 0127:B8 LPS): 62.5 µg/mL | MIC, minimal inhibitory concentration of LPS [1]: 62.5 µg/mL | MIC, minimal inhibitory concentration of LPS [2]: 62.5 µg/mL | MIC, minimal inhibitory concentration of LPS [3]: 15.6 µg/mL | MIC, minimal inhibitory concentration of LPS (E. coli J5 LPS): 15.6 µg/mL | Percent inhibition of proliferation (Pseudomonas aeruginosa; RNIP 0.6 μg/ml): 75% | Percent inhibition of proliferation (Pseudomonas aeruginosa; RNIP 1.25 μg/ml): 82% | Percent inhibition of proliferation (Pseudomonas aeruginosa; RNIP 2.5 μg/ml): 96% | Percent inhibition of proliferation (Pseudomonas aeruginosa; RNIP 5.0 μg/ml): 99% | Percent inhibition of proliferation (Streptococcus pyogenes; RNIP 0.6 μg/ml): 74% | Percent inhibition of proliferation (Streptococcus pyogenes; RNIP 1.25 μg/ml): 79% | Percent inhibition of proliferation (Streptococcus pyogenes; RNIP 2.5 μg/ml): 90% | Percent inhibition of proliferation (Streptococcus pyogenes; RNIP 5.0 μg/ml): 96% | Percent inhibition of proliferation (Streptococcus pneumoniae; RNIP 0.6 μg/ml): 31% | Percent inhibition of proliferation (Streptococcus pneumoniae; RNIP 1.25 μg/ml): 47% | Percent inhibition of proliferation (Streptococcus pneumoniae; RNIP 2.5 μg/ml): 68% | Percent inhibition of proliferation (Streptococcus pneumoniae; RNIP 5.0 μg/ml): 93% | Percent inhibition of proliferation (Klebsiella pneumoniae; RNIP 0.6 μg/ml): 4% | Percent inhibition of proliferation (Klebsiella pneumoniae; RNIP 1.25 μg/ml): 14% | Percent inhibition of proliferation (Klebsiella pneumoniae; RNIP 2.5 μg/ml): 17% | Percent inhibition of proliferation (Klebsiella pneumoniae; RNIP 5.0 μg/ml): 60% | Percent inhibition of proliferation (Pseudomonas apacia; RNIP 0.6 μg/ml): 81% | Percent inhibition of proliferation (Pseudomonas apacia; RNIP 1.25 μg/ml): 80% | Percent inhibition of proliferation (Pseudomonas apacia; RNIP 2.5 μg/ml): 99% | Percent inhibition of proliferation (Pseudomonas apacia; RNIP 5.0 μg/ml): 99% | Percent inhibition of proliferation ([4]; RNIP 0.6 μg/ml): 23% | Percent inhibition of proliferation ([4]; RNIP 1.25 μg/ml): 57% | Percent inhibition of proliferation ([4]; RNIP 2.5 μg/ml): 72% | Percent inhibition of proliferation ([4]; RNIP 5.0 μg/ml): 83% | Percent inhibition of proliferation (E. coli (HB101); RNIP 0.6 μg/ml): 81% | Percent inhibition of proliferation (E. coli (HB101); RNIP 1.25 μg/ml): 88% | Percent inhibition of proliferation (E. coli (HB101); RNIP 2.5 μg/ml): 99% | Percent inhibition of proliferation (E. coli (HB101); RNIP 5.0 μg/ml): 99% | Inhibition (%) of E. coli (HB101) proliferation (E. coli (HB101); RNIP 2.5 μg/ml, FCS concentration 0 %): 94 ± 10.3% | Inhibition (%) of E. coli (HB101) proliferation (E. coli (HB101); RNIP 2.5 μg/ml, FCS concentration 1 %): 91 ± 10.9% | Inhibition (%) of E. coli (HB101) proliferation (E. coli (HB101); RNIP 2.5 μg/ml, FCS concentration 5 %): 87 ± 3.1% | Inhibition (%) of E. coli (HB101) proliferation (E. coli (HB101); RNIP 2.5 μg/ml, FCS concentration 10 %): 78 ± 5.5% | IC50, anti-bacterial activity (E. coli O9:K39 K+ strain): 0.14 µg/mL | IC50 (E. coli O9:K39 K+ strain; [6]): 20 nM | RNI ([5]; IFNγ 500 U/ml, without RNIP 4.0 ± 0.8): 1.1 µM | IC50 ([5]; IFNγ stimulated, read-out: IC50 for inhibition of gamma interferon stimulated nitrogen radical release): < 50 nM | RNI ([5]; LPS + IFNγ 1 ng + 500 U/ml, without RNIP 26 ± 0.6): 14 ± 0.7 µM | IC50, anti-bacterial activity (E. coli O9:K39 K- strain): 0.68 µg/mL | IC50 (E. coli O9:K39 K- strain; [6]): 110 nM
